Experimental data published in patent US8580768B2, “Cannabinoid receptor antagonists-inverse agonists useful for treating metabolic disorders, including obesity and diabetes” (Jenrin Discovery, Inc., priority 2010, dated 2013).

System: not given
Assay: not given
Conditions: type 2 diabetes patients not on other anti-diabetic medications; six months of treatment; baseline value 7.9; placebo reduction 0.3%; cited from earlier work

For Cc1c(C(=O)NN2CCCCC2)nn(-c2ccc(Cl)cc2Cl)c1-c1ccc(Cl)cc1 [rimonabant], the HbA1c levels lowered is given as 0.8%.

Target: T1, human cannabinoid CB1 receptor (Homo sapiens, UniProt P21554)
T1 construct: expressed in transfected cells; host or cells: Chinese hamster ovary (CHO) cells, stably transfected; membrane preparations
Assay: CB1 receptor affinity, [3H]CP-55,940 radioligand displacement on CHO cell membrane preparations
Format: binding
Conditions: not given
Method: CB1 receptor affinities can be determined using membrane preparations of Chinese hamster ovary (CHO) cells in which the human cannabinoid CB1 receptor is stably transfected (Biochem J. 1991, 279, 129-134) in conjunction with [3H]CP-55,940 as radioligand. After incubation of a freshly prepared cell membrane preparation with the [3H]-radioligand, with or without addition of test compound, separation of bound and free ligand is performed by filtration over glass fiber filters. Radioactivity on the filter is measured by liquid scintillation counting. The IC50 values can be determined from at least three independent measurements.
The CB1 IC50 values for tested compounds are as follows.

T1 sequence (P21554 whole entry): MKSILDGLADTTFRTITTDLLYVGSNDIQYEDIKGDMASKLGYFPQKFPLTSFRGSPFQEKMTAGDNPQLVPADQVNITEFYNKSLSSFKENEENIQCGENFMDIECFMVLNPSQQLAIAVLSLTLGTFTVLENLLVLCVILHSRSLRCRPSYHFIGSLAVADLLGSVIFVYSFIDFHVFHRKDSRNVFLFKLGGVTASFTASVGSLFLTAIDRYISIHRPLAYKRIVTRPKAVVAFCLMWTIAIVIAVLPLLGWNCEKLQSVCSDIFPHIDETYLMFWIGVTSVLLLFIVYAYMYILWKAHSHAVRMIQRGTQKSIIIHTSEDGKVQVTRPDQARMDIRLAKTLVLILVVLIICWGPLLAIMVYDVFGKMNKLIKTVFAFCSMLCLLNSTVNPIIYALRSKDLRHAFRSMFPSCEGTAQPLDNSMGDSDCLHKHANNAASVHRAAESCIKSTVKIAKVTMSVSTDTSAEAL

In the case of CCOP(=O)(OCC)C(C)NC(=NS(=O)(=O)c1ccc(Cl)cc1)N1CC(c2ccccc2)C(c2ccc(Cl)cc2)=N1 (stereo not shown) [compound 28], the IC50 is reported as 1000 to 10000 nM.

Same assay, conditions: read-out: CB1 IC50

COc1ccc(C2=NN(C(=NS(=O)(=O)c3ccc(Cl)cc3)NC(C)C(N)=O)CC2c2ccccc2)cc1 (stereo not shown) [compound 1] and COc1cccc(S(=O)(=O)N=C(NC(C)C(N)=O)N2CC(c3ccccc3)C(c3ccc(Cl)cc3)=N2)c1 (stereo not shown) [compound 18] cannot be ordered by IC50: less than 100 nM for the first, less than 100 nM for the second.

NC(=O)C(CO)NC(=NS(=O)(=O)c1ccc(Cl)cc1)N1CC(c2ccccc2)C(c2ccc(Cl)cc2)=N1 (stereo not shown) [compound 2] and CC(O)C(NC(=NS(=O)(=O)c1ccc(Cl)cc1)N1CC(c2ccccc2)C(c2ccc(Cl)cc2)=N1)C(N)=O (stereo not shown) [compound 7] cannot be ordered by IC50: less than 100 nM for the first, less than 100 nM for the second.

NS(=O)(=O)CCNC(=NS(=O)(=O)c1ccc(Cl)cc1)N1CC(c2ccccc2)C(c2ccc(Cl)cc2)=N1 (stereo not shown) [compound 3] and NS(=O)(=O)CCNC(=O)CNC(=NS(=O)(=O)c1ccc(Cl)cc1)N1CC(c2ccccc2)C(c2ccc(Cl)cc2)=N1 (stereo not shown) [compound 23] cannot be ordered by IC50: less than 100 nM for the first, less than 100 nM for the second.

CC(C)C(NC(=NS(=O)(=O)c1cccc(C(N)=O)c1)N1CC(c2ccccc2)C(c2ccc(Cl)cc2)=N1)C(N)=O (stereo not shown) [compound 4] and CC(C)C(NC(=NS(=O)(=O)c1cccc(C(=N)N)c1)N1CC(c2ccccc2)C(c2ccc(Cl)cc2)=N1)C(N)=O (stereo not shown) [compound 9] fall in the same range of IC50: 100 to 1000 nM for the first, 100 to 1000 nM for the second.

CC(C)C(NC(=NS(=O)(=O)c1cccc(C#N)c1)N1CC(c2ccccc2)C(c2ccc(Cl)cc2)=N1)C(N)=O (stereo not shown) [compound 5] and CC(O)C(NC(=NS(=O)(=O)c1cccc(C#N)c1)N1CC(c2ccccc2)C(c2ccc(Cl)cc2)=N1)C(N)=O (stereo not shown) [compound 12] cannot be ordered by IC50: less than 100 nM for the first, less than 100 nM for the second.

NC(CNC(=NS(=O)(=O)c1ccc(Cl)cc1)N1CC(c2ccccc2)C(c2ccc(Cl)cc2)=N1)=NO (stereo not shown) [compound 6] and NC(CCNC(=NS(=O)(=O)c1ccc(Cl)cc1)N1CC(c2ccccc2)C(c2ccc(Cl)cc2)=N1)=NO (stereo not shown) [compound 8] cannot be ordered by IC50: less than 100 nM for the first, less than 100 nM for the second.

COc1cccc(S(=O)(=O)N=C(NC2(C(N)=O)CCC2)N2CC(c3ccccc3)C(c3ccc(Cl)cc3)=N2)c1 (stereo not shown) [compound 10] and N#Cc1cccc(S(=O)(=O)N=C(NC2(C(N)=O)CCC2)N2CC(c3ccccc3)C(c3ccc(Cl)cc3)=N2)c1 (stereo not shown) [compound 17] cannot be ordered by IC50: less than 100 nM for the first, less than 100 nM for the second.

CC(O)C(NC(=NS(=O)(=O)c1ccc(Cl)cc1)N1CC(c2ccccc2)C(c2ccc(Cl)cc2)=N1)C(=O)NC(CO)C(N)=O (stereo not shown) [compound 11] and CC(O)C(NC(=NS(=O)(=O)c1ccc(Cl)cc1)N1CC(c2ccccc2)C(c2ccc(Cl)cc2)=N1)C(=O)NCCS(N)(=O)=O (stereo not shown) [compound 25] cannot be ordered by IC50: less than 100 nM for the first, less than 100 nM for the second.

CC(O)C(NC(=NS(=O)(=O)c1cccc(C(=N)N)c1)N1CC(c2ccccc2)C(c2ccc(Cl)cc2)=N1)C(N)=O (stereo not shown) [compound 13] and CC(NC(=NS(=O)(=O)c1cccc(C#N)c1)N1CC(c2ccccc2)C(c2ccc(Cl)cc2)=N1)C(N)=O (stereo not shown) [compound 16] cannot be ordered by IC50: less than 100 nM for the first, less than 100 nM for the second.

COc1cccc(S(=O)(=O)N=C(NCCS(N)(=O)=O)N2CC(c3ccccc3)C(c3ccc(Cl)cc3)=N2)c1 (stereo not shown) [compound 14] and COc1ccc(C2=NN(C(=NS(=O)(=O)c3ccc(Cl)cc3)NCCS(N)(=O)=O)CC2c2ccccc2)cc1 (stereo not shown) [compound 20] cannot be ordered by IC50: less than 100 nM for the first, less than 100 nM for the second.

N#Cc1cccc(S(=O)(=O)N=C(NCCS(N)(=O)=O)N2CC(c3ccccc3)C(c3ccc(Cl)cc3)=N2)c1 (stereo not shown) [compound 15] and N#Cc1cccc(S(=O)(=O)N=C(NC(C(N)=O)C2CCC2)N2CC(c3ccccc3)C(c3ccc(Cl)cc3)=N2)c1 (stereo not shown) [compound 22] cannot be ordered by IC50: less than 100 nM for the first, less than 100 nM for the second.

Compared with COc1cccc(S(=O)(=O)N=C(NC(C(N)=O)C2CC2)N2CC(c3ccccc3)C(c3ccc(Cl)cc3)=N2)c1 (stereo not shown) [compound 21], COC(=O)C=CCNC(=NS(=O)(=O)c1ccc(Cl)cc1)N1CC(c2ccccc2)C(c2ccc(Cl)cc2)=N1 (stereo not shown) [compound 24] is lower in IC50: 100 to 1000 nM for the first, less than 100 nM for the second. The second is the more potent here.

First: NS(=O)(=O)CCNC(=O)C(CO)NC(=NS(=O)(=O)c1ccc(Cl)cc1)N1CC(c2ccccc2)C(c2ccc(Cl)cc2)=N1 (stereo not shown) [compound 26]
Second: NC(=O)Cc1csc(NC(=NS(=O)(=O)c2ccc(Cl)cc2)N2CC(c3ccccc3)C(c3ccc(Cl)cc3)=N2)n1 (stereo not shown) [compound 27]
The IC50 of the first is lower: less than 100 nM for the first, 1000 to 10000 nM for the second.
